Test results reported in US10660334B2, “Fused bicyclic heterocycle derivatives as pesticides” (Bayer CropScience Aktiengesellschaft, priority 2016, dated 2020).

Tests used:
Type in all cases: in vivo
Myzus persicae [1] = experiment: Myzus persicae oral test; conditions: 120 h, application rate 4 ppm, after 5 days, read-out: efficacy (aphids killed)
Method: Myzus persicae—Oral Test Solvent: 100 parts by weight of acetone To produce a suitable active ingredient formulation, 1 part by weight of active ingredient is dissolved with the stated parts by weight of solvent and made up to the desired concentration with water. 50 μl of the active ingredient preparation are transferred into microtitre plates and made up to a final volume of 200 μl with 150 μl of IPL41 insect medium (33%+15% sugar). Subsequently, the plates are sealed with parafilm, which a mixed population of green peach aphids (Myzus persicae) within a second microtitre plate is able to puncture and imbibe the solution. After 5 days, the efficacy in % is determined. 100% means that all the aphids have been killed; 0% means that no aphids have been killed.

Myzus persicae [2] = experiment: Myzus persicae spray test; conditions: foliar, 120 h, spray on Chinese cabbage leaf discs, after 5 days, read-out: efficacy (aphids killed); for pest or weed control at 100 g/ha: application rate 100 g/ha; for pest or weed control at 20 g/ha: application rate 20 g/ha
Method: Myzus persicae—Spray Test Solvent: 78 parts by weight of acetone • • 1.5 parts by weight of dimethylformamide Emulsifier: alkylaryl polyglycol ether To produce a suitable active ingredient formulation, 1 part by weight of active ingredient is dissolved with the specified parts by weight of solvent and made up to the desired concentration with water containing an emulsifier concentration of 1000 ppm. To produce further test concentrations, the formulation is diluted with emulsifier-containing water. Discs of Chinese cabbage leaves (Brassica pekinensis) infested by all stages of the green peach aphid (Myzus persicae) are sprayed with an active ingredient formulation of the desired concentration. After 5 days, the efficacy in % is determined. 100% means that all the aphids have been killed; 0% means that no aphids have been killed.

Tetranychus urticae = Tetranychus urticae spray test, OP-resistant; conditions: application rate 100 g/ha, spray on bean leaf discs, after 6 days
Method: Tetranychus urticae—Spray Test, OP-Resistant
(§1) Solvent: 78.0 parts by weight of acetone • • 1.5 parts by weight of dimethylformamide
(§2) Emulsifier: alkylaryl polyglycol ether
(§3) To produce a suitable active ingredient formulation, 1 part by weight of active ingredient is dissolved with the specified parts by weight of solvent and made up to the desired concentration with water containing an emulsifier concentration of 1000 ppm. To produce further test concentrations, the formulation is diluted with emulsifier-containing water.
Discs of bean leaves (Phaseolus vulgaris) infested with all stages of the greenhouse red spider mite (Tetranychus urticae) are sprayed with an active ingredient formulation of the desired concentration.
After 6 days, the efficacy in % is determined. 100% means that all the spider mites have been killed; 0% means that no spider mites have been killed.

Boophilus microplus = Boophilus microplus injection test; conditions: application rate 20 μg/animal, injection into engorged adult female cattle ticks, after 7 days
Method: Boophilus microplus—Injection Test Solvent: dimethyl sulfoxide To produce a suitable active ingredient formulation, 10 mg of active ingredient are mixed with 0.5 ml of solvent and the concentrate is diluted to the desired concentration with solvent. 1 μl of the active ingredient solution is injected into the abdomen of 5 engorged adult female cattle ticks (Boophilus microplus). The animals are transferred into dishes and kept in a climate-controlled room. Efficacy is assessed after 7 days by laying of fertile eggs. Eggs which are not visibly fertile are stored in a climate-controlled cabinet until the larvae hatch after about 42 days. An efficacy of 100% means that none of the ticks has laid any fertile eggs; 0% means that all the eggs are fertile.

Ctenocephalides felis [3] = experiment: Ctenocephalides felis oral test; conditions: application rate 100 ppm in citrated cattle blood, after 2 days, adult cat fleas
Method: Ctenocephalides felis—Oral Test Solvent: dimethyl sulfoxide To produce a suitable active ingredient formulation, 10 mg of active ingredient are mixed with 0.5 ml of dimethyl sulfoxide. Dilution with citrated cattle blood gives the desired concentration. About 20 unfed adult cat fleas (Cienocephalides felis) are placed into a chamber which is closed at the top and bottom with gauze. A metal cylinder whose bottom end is closed with parafilm is placed onto the chamber. The cylinder contains the blood/active ingredient formulation, which can be imbibed by the fleas through the parafilm membrane. After 2 days, the kill in % is determined. 100% means that all of the fleas have been killed; 0% means that none of the fleas have been killed.

Lucilia cuprina = Lucilia cuprina test; conditions: application rate 100 ppm, L1 larvae, after 2 days
Method: Lucilia cuprina Test Solvent: dimethyl sulfoxide To produce a suitable active ingredient formulation, 10 mg of active ingredient are mixed with 0.5 ml of dimethyl sulfoxide, and the concentrate is diluted with water to the desired concentration. About 20 L1 larvae of the Australian sheep blowfly (Lucilia cuprina) are transferred into a test vessel containing minced horsemeat and the active ingredient formulation of the desired concentration. After 2 days, the kill in % is determined. 100% means that all the larvae have been killed; 0% means that no larvae have been killed.

Musca domestica = Musca domestica test; conditions: application rate 100 ppm, adult houseflies, after 2 days
Method: Musca domestica Test Solvent: dimethyl sulfoxide To produce a suitable active ingredient formulation, 10 mg of active ingredient are mixed with 0.5 ml of dimethyl sulfoxide, and the concentrate is diluted with water to the desired concentration. Vessels containing a sponge treated with sugar solution and the active ingredient formulation of the desired concentration are populated with 10 adult houseflies (Musca domestica). After 2 days, the kill in % is determined. 100% means that all of the flies have been killed; 0% means that none of the flies have been killed.

Ctenocephalides felis [4] = experiment: Ctenocephalides felis in vitro contact test with adult cat fleas; conditions: application rate 5 μg/cm^2 (=500 g/ha), after 48 h
Method: Ctenocephalides felis—In Vitro Contact Tests with Adult Cat Fleas For the coating of the test tubes, 9 mg of active ingredient are first dissolved in 1 ml of acetone p.a. and then diluted to the desired concentration with acetone p.a. 250 μl of the solution are distributed homogeneously on the inner walls and the base of a 25 ml glass tube by turning and rocking on an orbital shaker (rocking rotation at 30 rpm for 2 h). With 900 ppm of active ingredient solution and internal surface area 44.7 cm^2, given homogeneous distribution, an area-based dose of 5 μg/cm^2 is achieved. After the solvent has evaporated off, the tubes are populated with 5-10 adult cat fleas (Ctenocephalides felis), sealed with a perforated plastic lid and incubated in a horizontal position at room temperature and ambient humidity. After 48 h, efficacy is determined. To this end, the tubes are stood upright and the fleas are knocked to the base of the tube. Fleas which remain motionless at the base or move in an uncoordinated manner are considered to be dead or moribund. […] 100% efficacy means that all the fleas were dead or moribund. 0% efficacy means that no fleas were harmed.

Meloidogyne incognita = Meloidogyne incognita test; conditions: application rate 20 ppm, lettuce, after 14 days
Method: Meloidogyne incognita Test Solvent: 125.0 parts by weight of acetone To produce a suitable active ingredient formulation, 1 part by weight of active ingredient is mixed with the stated amount of solvent and the concentrate is diluted to the desired concentration with water. Vessels are filled with sand, active ingredient solution, an egg/larvae suspension of the southern root-knot nematode (Meloidogyne incognita) and lettuce seeds. The lettuce seeds germinate and the plants develop. The galls develop on the roots. After 14 days, the nematicidal efficacy in % is determined by the formation of galls. 100% means that no galls were found; 0% means that the number of galls on the treated plants corresponds to the untreated control.

Phaedon cochleariae = Phaedon cochleariae spray test; conditions: application rate 100 g/ha, spray on Chinese cabbage leaf discs, after 7 days
Method: Phaedon cochleariae—Spray Test
as §1, §2, §3
Discs of Chinese cabbage leaves (Brassica pekinensis) are sprayed with an active ingredient formulation of the desired concentration and, after drying, populated with larvae of the mustard beetle (Phaedon cochleariae).
After 7 days, the efficacy in % is determined. 100% means that all the beetle larvae have been killed; 0% means that no beetle larvae have been killed.

Spodoptera frugiperda = Spodoptera frugiperda spray test; conditions: application rate 100 g/ha, spray on maize leaf discs, after 7 days
Method: Spodoptera frugiperda—Spray Test Solvent: 78.0 parts by weight of acetone • • 1.5 parts by weight of dimethylformamide Emulsifier: alkylaryl polyglycol ether To produce a suitable active ingredient formulation, 1 part by weight of active ingredient is dissolved with the specified parts by weight of solvent and made up to the desired concentration with water containing an emulsifier concentration of 1000 ppm. To produce further test concentrations, the formulation is diluted with emulsifier-containing water. Leaf discs of maize (Zea mays) are sprayed with an active ingredient formulation of the desired concentration and, after drying, populated with caterpillars of the armyworm (Spodoptera frugiperda). After 7 days, the efficacy in % is determined. 100% means that all the caterpillars have been killed; 0% means that no caterpillar has been killed.

Compound | pest or weed control at 4 ppm (Myzus persicae [1]) | pest or weed control at 100 g/ha (Myzus persicae [2]) | efficacy (spider mites killed) (Tetranychus urticae) | efficacy (laying of fertile eggs) (Boophilus microplus) | efficacy (kill) (Ctenocephalides felis [3]) | efficacy (kill) (Lucilia cuprina) | efficacy (kill) (Musca domestica) | pest or weed control at 20 g/ha (Myzus persicae [2]) | efficacy (fleas dead or moribund) (Ctenocephalides felis [4]) | nematicidal efficacy (formation of galls) (Meloidogyne incognita) | efficacy (beetle larvae killed) (Phaedon cochleariae) | efficacy (caterpillars killed) (Spodoptera frugiperda)
CCS(=O)(=O)c1c(-c2nc3cc(C(F)(F)F)ncc3n2C)nc2n1CC(C(F)(F)F)CC2 (stereo not shown) [Example I-003] | 100% | 100% | 90% | – | – | – | – | – | – | – | – | –
CCS(=O)(=O)c1c(-c2nc3cc(C(F)(F)F)ncc3n2C)nc2n1CC(C)CC2 (stereo not shown) [Example I-009] | 100% | 100% | – | 100% | 80% | 100% | 100% | 90% | – | – | – | –
CCS(=O)(=O)c1c(-c2nc3cc(C(F)(F)F)ncc3n2C)nc2n1CCC(C)C2 (stereo not shown) [Example I-007] | 100% | 100% | – | – | 80% | 100% | 100% | 100% | 100% | – | – | –
CCS(=O)(=O)c1c(-c2nc3cc(C(F)(F)C(F)(F)F)ncc3n2C)nc2n1CCCC2 [Example I-012] | 100% | 90% | – | – | 100% | 100% | – | 90% | – | 90% | 100% | 83%
